# Values quoted from earlier work in patent publication US9585967B2, “Nicotine-containing product” (priority 2008, dated 2017).
# Key:
# [1] = extensive first-pass metabolism
# [2] = in vivo
structure (smiles),measurement,setting,value
"CN1CCC[C@H]1c1cccnc1 [Nicotine, (S)-3-(1-Methyl-2-pyrrolidinyl)pyridine]",Oral bioavailability,[1],about 30%
same,half life in the body,[2],around two
